The record followed here is patent publication US11648254B2 (Kumquat Biosciences Inc., priority 2021, dated 2023).

Where two headings read alike, the source gives them in different places. Some results are limits rather than exact numbers.

The nature of series [1]: In vitro plasma protein binding (PPB). Particulars: percentage of free/unbound compound. Type of series: in vitro ADME.
The target of series [2] is SOS1 (Homo sapiens (Human), UniProt Q07889). The series can be described thus: Ras-SOS interaction assay (HTRF). Type of series: biochemical. In general terms: TR-FRET usually uses a lanthanide donor and a delayed reading to cut background.
The test system of series [3] is NCI-H1975 cells (EGFR T790M L858R). The experiment in a line: EGFR-SOS cellular inhibition assay (CellTiter-Glo, 3D). Type of series: cell-based. In general terms: ATP-based viability assays read luminescence as a measure of living cells.
Series [4] concerns MIA PaCa-2 cells (K-Ras G12C). The series can be described thus: Ras-SOS cellular growth inhibition assay (CellTiter-Glo, 3D). The series is classed as cell-based. A digest of the protocol:
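MIA PaCa-2 cells grown in ultra-low-attachment plates (3D) in DMEM/Ham's F12 with 10% FCS and 2.5% horse serum, treated the day after seeding with a 9-point 3-fold compound series for about 5 days. Viability by CellTiter-Glo luminescence; IC50 from four-parameter fit.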

The mark [5] stands for this setting: K-RasG13D utilized, read-out: IC50 inhibition of SOS.
The mark [6] stands for this setting: K-RasG13D, read-out: IC50 value against SOS1.
[7] abbreviates: Homo sapiens, 120 h, NCI-H1975, 3D proliferation, about 5 days, read-out: Bio-Cell-Prolif-3D (H1975 IC50).
Setting [8] is: Homo sapiens, MIA PaCa-2, 120 h, MIA PaCa-2, 3D proliferation, about 5 days, read-out: Bio-Cell-Prolif-3D (MiaPaca2 IC50).
Where [9] appears, read: Homo sapiens, NCI-H1975, EGFR T790M L858R, read-out: IC50 in inhibiting growth of NCI-H1975 cell line.
The mark [10] stands for this setting: Homo sapiens, MIA PaCa-2, MIA PaCa-2, read-out: IC50 in inhibiting MIA PaCa-2 cell growth.

For orientation: IC50 means the concentration at which inhibition is half-maximal.

Regarding `COc1nc2nc(C)nc(N[C@H](C)c3cccc(C(F)(F)F)c3F)c2cc1C1CCN(C2CCOCC2)CC1` [Compound 344, (R)-N-(1-(2-fluoro-3-(trifluoromethyl)phenyl)ethyl)-7-methoxy-2-methyl-6-(1-(tetrahydro-2H-pyran-4-yl)piperidin-4-yl)pyrido[2,3-d]pyrimidin-4-amine], in series [1], the “DMPK-invitro-PPB (Mouse Unbound) [%]” value amounted to 0.29%. For the same molecule, the results for the 50% inhibitory concentration (IC50) in series [2] (setting [5]) and in series [2] (setting [6]) were below 100 nM and below 50 nM, respectively.
Taken in the same sequence, the figures for `COc1nc2nc(C)nc(N[C@H](C)c3cccc(C(F)(F)F)c3C)c2cc1C1CCN(C2CCOCC2)CC1` [Compound 358, (R)-7-methoxy-2-methyl-N-(1-(2-methyl-3-(trifluoromethyl)phenyl)ethyl)-6-(1-(tetrahydro-2H-pyran-4-yl)piperidin-4-yl)pyrido [2,3-d]pyrimidin-4-amine] were 0.065%, below 100 nM and below 50 nM.
With `Cc1nc(N[C@H](C)c2cccc(C(F)F)c2F)c2cc(C3CCS(=O)(=O)CC3)c(NC3COC3)nc2n1` [Compound 401, (R)-4-(4-((1-(3-(difluoromethyl)-2-fluorophenyl)ethyl)amino)-2-methyl-7-(oxetan-3-ylamino)pyrido[2,3-d]pyrimidin-6-yl)tetrahydro-2H-thiopyran 1,1-dioxide], the IC50 in series [3] (setting [7]) was at most 1000 nM; in series [4] (setting [8]), 1000 to 10000 nM; in series [2] (setting [5]) it was below 100 nM; in series [2] (setting [6]), below 50 nM.
Taken in the same sequence, the figures for `CNCCOc1nc2nc(C)nc(N[C@H](C)c3cccc(C(F)F)c3F)c2cc1C1CCN(C(C)C)CC1` [Compound 404, (R)-N-(1-(3-(difluoromethyl)-2-fluorophenyl)ethyl)-6-(1-isopropylpiperidin-4-yl)-2-methyl-7-(2-(methylamino)ethoxy)pyrido[2,3-d] pyrimidin-4-amine] were 1000 to 10000 nM, 1000 to 10000 nM, below 100 nM and below 50 nM.
Take `CNCCOc1nc2nc(C)nc(N[C@H](C)c3cccc(C(F)F)c3F)c2cc1N1CCN(C(C)C)CC1` [Compound 406, (R)-N-(1-(3-(difluoromethyl)-2-fluorophenyl)ethyl)-6-(4-isopropylpiperazin-1-yl)-2-methyl-7-(2-(methylamino)ethoxy)pyrido[2,3-d] pyrimidin-4-amine]: the IC50 in series [3] (setting [7]) was at most 1000 nM; in series [3] (setting [9]) it was below 500 nM; in series [4] (setting [8]), at most 1000 nM; in series [4] (setting [10]), below 500 nM; in series [2] (setting [5]) it was below 100 nM; in series [2] (setting [6]) it was below 50 nM.
Regarding `Cc1nc(N[C@H](C)c2cccc(C(F)F)c2F)c2cc(C3CCN(C(C)C)CC3)c(NC3COC3)nc2n1` [Compound 407, (R)-N4-(1-(3-(difluoromethyl)-2-fluorophenyl)ethyl)-6-(1-isopropylpiperidin-4-yl)-2-methyl-N7-(oxetan-3-yl)pyrido [2,3-d]pyrimidine-4,7-diamine], the IC50 in series [3] (setting [7]) is 1000 to 10000 nM; in series [4] (setting [8]), 1000 to 10000 nM; in series [2] (setting [5]), below 100 nM; in series [2] (setting [6]) it was below 50 nM.
As to `Cc1nc(N[C@H](C)c2cccc(C(F)F)c2F)c2cc(C3CCN(C(C)C)CC3)c(OC3CN(C)C3)nc2n1` [Compound 410, (R)-N-(1-(3-(difluoromethyl)-2-fluorophenyl)ethyl)-6-(1-isopropylpiperidin-4-yl)-2-methyl-7-((1-methylazetidin-3-yl)oxy)pyrido[2,3-d]pyrimidin-4-amine], the IC50 was at most 1000 nM in series [3] (setting [7]); below 500 nM in series [3] (setting [9]); at most 1000 nM in series [4] (setting [8]); below 500 nM in series [4] (setting [10]); below 100 nM in series [2] (setting [5]); below 50 nM in series [2] (setting [6]).
With `Cc1nc(N[C@H](C)c2cccc(C(F)F)c2F)c2cc(N3CCN(C)CC3)c(OC3COC3)nc2n1` [Compound 411, (R)-N-(1-(3-(difluoromethyl)-2-fluorophenyl)ethyl)-2-methyl-6-(4-methylpiperazin-1-yl)-7-(oxetan-3-yloxy)pyrido[2,3-d]pyrimidin-4-amine], the IC50 was at most 1000 nM in series [3] (setting [7]); below 500 nM in series [3] (setting [9]); at most 1000 nM in series [4] (setting [8]); below 500 nM in series [4] (setting [10]); below 100 nM in series [2] (setting [5]); below 50 nM in series [2] (setting [6]).
Regarding `COc1nc2ncnc(N[C@H](C)c3cccc(C(F)F)c3F)c2cc1C1CCN(C)CC1` [Compound 412, (R)-N-(1-(3-(difluoromethyl)-2-fluorophenyl)ethyl)-7-methoxy-6-(1-methylpiperidin-4-yl)pyrido[2,3-d] pyrimidin-4-amine], the concentration for half-maximal inhibition (IC50) in series [3] (setting [7]) is at most 1000 nM; in series [3] (setting [9]) it was below 500 nM; in series [4] (setting [8]) it was at most 1000 nM; in series [4] (setting [10]), below 500 nM; in series [2] (setting [5]) it was below 100 nM; in series [2] (setting [6]), below 50 nM.
Consider `CC(C)N1CCN(c2cc3c(N[C@H](C)c4cccc(C(F)F)c4F)ncnc3nc2OC2COC2)CC1` [Compound 413, (R)-N-(1-(3-(difluoromethyl)-2-fluorophenyl)ethyl)-6-(4-isopropylpiperazin-1-yl)-7-(oxetan-3-yloxy)pyrido[2,3-d] pyrimidin-4-amine], for which the IC50 in series [3] (setting [7]) is at most 1000 nM; in series [3] (setting [9]), below 500 nM; in series [4] (setting [8]) it was at most 1000 nM; in series [4] (setting [10]), below 500 nM; in series [2] (setting [5]) it was below 100 nM; in series [2] (setting [6]), below 50 nM.
Consider `CC(C)N1CCN(c2cc3c(N[C@H](C)c4cccc(C(F)F)c4F)ncnc3nc2OC2CN(C)C2)CC1` [Compound 414, (R)-N-(1-(3-(difluoromethyl)-2-fluorophenyl)ethyl)-6-(4-isopropylpiperazin-1-yl)-7-((1-methylazetidin-3-yl)oxy)pyrido [2,3-d]pyrimidin-4-amine], for which the half-maximal inhibitory concentration (IC50) in series [3] (setting [7]) was at most 1000 nM; in series [3] (setting [9]), below 500 nM; in series [4] (setting [8]), at most 1000 nM; in series [2] (setting [5]) it was below 100 nM; in series [2] (setting [6]), below 50 nM.
In the case of `CCN1CCN(c2cc3c(N[C@H](C)c4cccc(C(F)F)c4F)nc(C)nc3nc2OC2COC2)CC1` [Compound 415, (R)-N-(1-(3-(difluoromethyl)-2-fluorophenyl)ethyl)-6-(4-ethylpiperazin-1-yl)-2-methyl-7-(oxetan-3-yloxy) pyrido[2,3-d]pyrimidin-4-amine], the IC50 is at most 1000 nM in series [3] (setting [7]); below 500 nM in series [3] (setting [9]); at most 1000 nM in series [4] (setting [8]); below 500 nM in series [4] (setting [10]); below 100 nM in series [2] (setting [5]); below 50 nM in series [2] (setting [6]).
In the case of `COc1nc2nc(C)nc(N[C@H](C)c3cccc(C(F)(F)C4CCN(C(C)C)CC4)c3)c2cc1N1CCN(C(C)C)CC1` [Compound 418, (R)—N-(1-(3-(difluoro(1-isopropylpiperidin-4-yl)methyl)phenyl)ethyl)-6-(4-isopropylpiperazin-1-yl)-7-methoxy-2-methylpyrido[2,3-d]pyrimidin-4-amine], the 50% inhibitory concentration (IC50) in series [3] (setting [7]) was at most 1000 nM; in series [3] (setting [9]), below 500 nM; in series [4] (setting [8]), at most 1000 nM; in series [4] (setting [10]), below 500 nM; in series [2] (setting [5]), below 100 nM; in series [2] (setting [6]), below 50 nM.
With `COc1nc2ncnc(N[C@H](C)c3cccc(C(F)(F)C4CCN(C(C)C)CC4)c3)c2cc1C1CCN(C(C)C)CC1` [Compound 419, (R)—N-(1-(3-(difluoro(1-isopropylpiperidin-4-yl)methyl)phenyl)ethyl)-6-(1-isopropylpiperidin-4-yl)-7-methoxypyrido[2,3-d]pyrimidin-4-amine], the half-maximal inhibitory concentration (IC50) in series [3] (setting [7]) was at most 1000 nM; in series [3] (setting [9]), below 500 nM; in series [4] (setting [8]) it was at most 1000 nM; in series [4] (setting [10]), below 500 nM; in series [2] (setting [5]) it was below 100 nM; in series [2] (setting [6]) it was below 50 nM.
As to `COc1nc2nc(C)nc(N[C@H](C)c3cccc(C(F)(F)C4CCN(C(C)C)CC4)c3)c2cc1C1CCN(C(C)C)CC1` [Compound 420, (R)-N-(1-(3-(difluoro(1-isopropylpiperidin-4-yl)methyl)phenyl)ethyl)-6-(1-isopropylpiperidin-4-yl)-7-methoxy-2-methylpyrido[2,3-d] pyrimidin-4-amine], the IC50 in series [3] (setting [7]) was at most 1000 nM; in series [3] (setting [9]), below 500 nM; in series [4] (setting [8]), at most 1000 nM; in series [4] (setting [10]), below 500 nM; in series [2] (setting [5]), below 100 nM; in series [2] (setting [6]) it was below 50 nM.
On to `COc1nc2ncnc(N[C@H](C)c3cccc(C(F)(F)C4CCN(C(C)C)CC4)c3)c2cc1N1CCN(C(C)C)CC1` [Compound 421, (R)-N-(1-(3-(difluoro(1-isopropylpiperidin-4-yl)methyl)phenyl)ethyl)-6-(4-isopropylpiperazin-1-yl)-7-methoxypyrido[2,3-d] pyrimidin-4-amine], for which the concentration for half-maximal inhibition (IC50) in series [3] (setting [7]) is at most 1000 nM; in series [3] (setting [9]) it was below 500 nM; in series [4] (setting [8]) it was at most 1000 nM; in series [4] (setting [10]), below 500 nM; in series [2] (setting [5]), below 100 nM; in series [2] (setting [6]), below 50 nM.
With “((R)-1,4-dioxan-2-yl)(4-(4-(((R)-1-(2-fluoro-3-(trifluoromethyl)-phenyl)ethyl)amino)-7-methoxy-2-methylpyrido[2,3-d]pyrimidin-6-yl)piperazin-1-yl)methanone [Compound 303]”, the IC50 in series [3] (NCI-H1975, 3D proliferation, about 5 days, read-out: Bio-Cell-Prolif-3D (H1975 IC50)) is at most 1000 nM; in series [3] (NCI-H1975, EGFR T790M L858R, read-out: IC50 in inhibiting growth of NCI-H1975 cell line), below 500 nM; in series [4] (MIA PaCa-2, 3D proliferation, about 5 days, read-out: Bio-Cell-Prolif-3D (MiaPaca2 IC50)) it was at most 1000 nM; in series [2] (setting [5]), below 100 nM; in series [2] (setting [6]) it was below 50 nM.
